Measured values taken from article PMC6934184, “Selective DNA-PKcs inhibition extends the therapeutic index of localized radiotherapy and chemotherapy” (The Journal of Clinical Investigation, 2019).

Target: T1, AXL (Homo sapiens, UniProt P30530)
T1 construct: purchased Thermo Fisher Scientific (Life Technologies) SelectScreen
Experiment: SelectScreen Z'LYTE
Assay type: biochemical
Summary of the method: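 Compound tested in SelectScreen activity assays, Z'LYTE for CSF1R, CDK1/cyclin B and MAP2K6 and Adapta for CAMK1. ATP for CAMK1 was listed as 10, and Km app was used for CSF1R. Results are expressed in percent.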

T1 sequence (P30530 26-894): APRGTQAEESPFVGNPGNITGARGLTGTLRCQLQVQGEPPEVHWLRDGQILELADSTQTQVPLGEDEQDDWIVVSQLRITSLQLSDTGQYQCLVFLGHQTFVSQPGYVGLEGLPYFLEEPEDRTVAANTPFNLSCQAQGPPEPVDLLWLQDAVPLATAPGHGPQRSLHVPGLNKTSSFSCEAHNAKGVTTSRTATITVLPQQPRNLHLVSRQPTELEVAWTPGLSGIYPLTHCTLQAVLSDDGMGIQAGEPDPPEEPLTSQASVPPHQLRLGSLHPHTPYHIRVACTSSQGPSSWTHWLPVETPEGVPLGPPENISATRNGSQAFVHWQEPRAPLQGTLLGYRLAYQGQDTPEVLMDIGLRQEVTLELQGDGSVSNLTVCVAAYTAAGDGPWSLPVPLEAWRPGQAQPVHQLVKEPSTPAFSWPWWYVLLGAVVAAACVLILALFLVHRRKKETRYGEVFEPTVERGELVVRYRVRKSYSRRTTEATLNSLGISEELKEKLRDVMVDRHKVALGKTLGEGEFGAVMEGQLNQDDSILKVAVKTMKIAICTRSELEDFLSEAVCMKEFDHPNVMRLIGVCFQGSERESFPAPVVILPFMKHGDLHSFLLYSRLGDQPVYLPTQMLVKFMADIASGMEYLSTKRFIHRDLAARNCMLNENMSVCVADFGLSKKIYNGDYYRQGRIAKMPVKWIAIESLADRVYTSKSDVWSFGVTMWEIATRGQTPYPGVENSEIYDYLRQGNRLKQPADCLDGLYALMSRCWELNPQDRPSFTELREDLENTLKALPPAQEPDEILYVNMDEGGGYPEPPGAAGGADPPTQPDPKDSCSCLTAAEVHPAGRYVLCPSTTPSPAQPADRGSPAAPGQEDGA

## CN(C(=O)CN1CCOCC1)c1ccc2sc3c(-c4cccc5c(=O)cc(N6CC7CCC(C6)O7)oc45)cccc3c2c1 [NU5455]
  inhibition at 1 µM: -4.2%
